Measured values from patent US10662445B2, “Process for the production of bio-butanol by fermentation of glycosidic waste matter” (priority 2018, dated 2020).

Tests used:
[1] = Organic-solvent extraction of microbial inhibitors from an agro-waste hydrolysate mimic; type: physicochemical; details: for Inhibitor extraction, phase separation by centrifugal force / Inhibitor extraction, phase separation by separating funnel: solvent bis-(2-ethylhexyl) sebacate; for HMF remaining after extraction: standard 2.723 g/L; for Furfural remaining after extraction: standard 2.956 g/L; for TRS (total reducing sugar) after extraction: standard 52.00 g/L
From the text: Media composition was designed according to the inhibitory compound limit concentration reported in the literature for bio-butanol producing solventogenic Clostridia (Baral et al. Microbial inhibitors: formation and effects on acetone-butanol-ethanol fermentation of lignocellulosic biomass. Applied microbiology and biotechnology, Vol. 98(22), 2014: 9151-9172; Qureshi et al. Production of butanol (a biofuel) from agricultural residues: Part I—Use of barley straw hydrolysate. Biomass and bioenergy, Vol. 34(4), 2010: 559-565). Different volume ratio of the hydrolysate mimic and organic solvents, such as (5:1), (3:1), (2:1), (1:1) and (1:2) (vaqueous:vorganic) were tried in order to minimize extractant expenditure. Organic and aqueous phase mixing was carried out by a propeller impeller. Rotation rate (100, 200, 250, 300 and 400 rpm) and operation-time (15, 30, 45, 60 and 90 min) were tested at room temperature (25° C.). A comparative study between settling through separating funnel vs. centrifugal force assisted separation was also made to guarantee an optimal recovery of the broth phase.
A complex mixture of several reduced sugar compounds (e.g. as glucose, fructose, and xylose) and microbial inhibitors (furfural, HMF, acetic acid, levulinic acid, vanillin, vanillic acid, feluric acid and syringaldehyde) were produced during the pretreatment step (hydrolysis). In order to analyse these compounds, liquid samples were collected and analyzed using liquid chromatography-mass spectrometry (LC-MS) and liquid chromatography-tandem mass spectrometry (LC/MS-MS) equipped with a ZORBAX Carbohydrate column (5 μm, 150×4.6 mm ID column) (Agilent Technologies, USA) with D6 glucose as the internal standard and a Biobasic-18 column (5 μm, 250×4.6 mm ID) (Agilent Technologies, USA) with phenylethanol-D5 as the internal standard. […] Methanol water (8:2) and acetonitrile water (8.5:1.5) were used to dilute the sample before inhibitor and carbohydrate analysis. […]

[2] = tested on: Clostridium beijerinckii NRRL B-466 (CB); test: Bio-compatibility (solvent toxicity) batch ABE fermentation, CB
Description: (§1) Clostridium acetobutylicum NRRL B-582 (ATCC-824) (CA) and Clostridium beijerinckii NRRL B-466(CB) were considered for current investigation to produce bio-butanol from different brewery industry wastes. They were kindly provided by Agricultural Research Station, USDA (USA). The microorganisms were grown and maintained in peptone-yeast extract-glucose (PYG) media under anaerobic condition (vegetative growth) at 37±1° C. and 150 rpm for 24 h and 17 h, respectively, before being transferred into the fermentation medium. The medium (g L^−1) comprised: glucose (10); yeast extract (10); peptone (5); tryptone (5); cysteine-HCl (0.5); K2HPO4 (2.04); KH2PO4 (0.04); FeSO4*7H2O (1.1×10^−3); CaCl2 (8×10^−3); MgSO4*7H2O (0.0192); NaCl (0.08); and NaHCO3 (0.4). 125 mL serum bottles (working volume 50 mL) were used for both butanol production and inoculum development (Maiti et al., January 2016, Maiti et al., August 2015). Anaerobic conditions were maintained within the bottle by sparging N2 for 10 minutes and immediately sealed by an aluminum crimp seal containing silicone septum (Fisher scientific, Canada) by means of a hand operated crimper (E-Z Crimper™, VWR, Ontario, Canada). Prior to culture development, the medium was sterilized for 20 min at 121±1° C. About 10% (v/v) (dry cell weight […]) of microbial culture in its exponential phase of growth (OD600nm=1.3-1.5) was used as inoculum for all the experiments conducted in this investigation.
(§2) Set-1, set-4 and set-5 were included as control-1, control-2 and control-3 respectively. All the experiments were carried out in P2 nutrient media as described later in batch fermentation section.
(§3) Batch fermentation was performed in 125 mL serum vials (working volume of 50 mL) at pH 6.7±0.1. The P2 medium was sterilized at 121±1° C. for 20 min. Prior to fermentation, anaerobic conditions for each bottle were maintained by sparging the medium with N2 for 10 minutes and immediately closing with an aluminum crimp seal containing silicon septum (Fisher scientific, Canada) by means of a hand-operated crimper (E-Z Crimper™, VWR, Ontario, Canada). A modified P2 medium, with the following composition, was used for fermentation experiments: Buffer→KH2PO450 g/L, K2HPO450 g/L, ammonium acetate 220 g/L; Minerals→MgSO4*7H2O 20 g/L, MnSO4*H2O 1 g/L, FeSO4*7H2O 1 g/L, NaCl 1 g/L; Vitamins→thiamin 0.1 g/L, biotin 0.001 g/L). Since brewery industry wastes were already enriched with yeast protein, no additional yeast protein nor peptone were supplemented.
(§4) The fermentation was initiated by inoculating the P2 medium with the seed cultures at a ratio of 10% (v:v). […] Fermentation experiments were performed at 37±1° C. with shaking at 150 rpm for 72 h in duplicates. 1 mL of culture broth from each batch assay was used for metabolite analysis. Data described here present average values from duplicate runs for duplicate samples.
(§5) To determine the different metabolites produced during ABE fermentation (i.e. butanol, ethanol, acetone, butyric acid, and acetic acid) liquid samples from each fermentation broth were collected and analyzed using gas chromatography (GC) (GC7890B, Agilent Technologies, USA) equipped with a FID detector and a HP-INNOWax™ column (30 m, 0.25 mm ID, 0.25 μm df). Isobutanol was used as the internal standard. Before injecting the sample (1 mL) in the GC for products analysis, the sample was centrifuged for 5 minutes at 7650×g and the supernatant was filtered by 0.45 μm syringe filter. The GC conditions comprised: helium carrier gas at a flow rate of 1 mL/min with a temperature ramp from the initial temperature of 50° C. to 150° C.

[3] = tested on: Clostridium acetobutylicum NRRL B-582 (ATCC-824) (CA); test: Bio-compatibility (solvent toxicity) batch ABE fermentation, CA; details: CA
Description: as §1, §2, §3, §4, §5

[4] = homogenizer rotational speed 100 rpm
[5] = homogenizer rotational speed 200 rpm
[6] = homogenizer rotational speed 250 rpm
[7] = homogenizer rotational speed 300 rpm
[8] = homogenizer rotational speed 400 rpm
[9] = Extraction 1, Vaqueous:Vorganic = 2:1, hydrolysate mimic
[10] = Extraction 1, Vaqueous:Vorganic = 2:1, hydrolysate mimic, standard 565.9 mg/L
[11] = Extraction 2, Vaqueous:Vorganic = 2:1, hydrolysate mimic
[12] = Extraction 3, Vaqueous:Vorganic = 2:1, hydrolysate mimic
[13] = Extraction 4, Vaqueous:Vorganic = 2:1, hydrolysate mimic
[14] = first stage, ratio 2:1, hydrolysate mimic
[15] = (5-15%) solvent supplemented to 52 g/L glucose
[16] = Control-1 (52 g/L glucose) + (5-15)% solvent, 72 h, P2 medium

In the case of `O=Cc1ccc(CO)o1` [HMF, hydroxymethyl furfural], the “Inhibitor extraction, phase separation by centrifugal force” value [1, 4] is reported as 71%, the “Inhibitor extraction, phase separation by separating funnel” value [1, 4] is reported as 71% and the “Inhibitor extraction, phase separation by centrifugal force” value [1, 5] is reported as 74%. For the same compound, the “Inhibitor extraction, phase separation by separating funnel” value [1, 5] was 73%, the “Inhibitor extraction, phase separation by centrifugal force” value [1, 6] was 79% and the “Inhibitor extraction, phase separation by separating funnel” value [1, 6] was 78%. For the same compound, the “Inhibitor extraction, phase separation by centrifugal force” value [1, 7] was 82%, the “Inhibitor extraction, phase separation by separating funnel” value [1, 7] was 80% and the “Inhibitor extraction, phase separation by centrifugal force” value [1, 8] was 84%. For the same compound, the “Inhibitor extraction, phase separation by separating funnel” value [1, 8] was 80%.

In the case of `COc1cc(C=O)ccc1O` [Vanillin, vanillin], the “Inhibitor extraction, phase separation by centrifugal force” value [1, 4] is reported as 95%, the “Inhibitor extraction, phase separation by separating funnel” value [1, 4] is reported as 93% and the “Inhibitor extraction, phase separation by centrifugal force” value [1, 5] is reported as 95%. For the same compound, the “Inhibitor extraction, phase separation by separating funnel” value [1, 5] was 93%, the “Inhibitor extraction, phase separation by centrifugal force” value [1, 6] was 97% and the “Inhibitor extraction, phase separation by separating funnel” value [1, 6] was 95%. The “Inhibitor extraction, phase separation by centrifugal force” value [1, 7] was 97%, the “Inhibitor extraction, phase separation by separating funnel” value [1, 7] was 97% and the “Inhibitor extraction, phase separation by centrifugal force” value [1, 8] was 96%. For the same compound, the “Inhibitor extraction, phase separation by separating funnel” value [1, 8] was 97%.

For `O=Cc1ccco1` [Furfural, furfural], the “Inhibitor extraction, phase separation by centrifugal force” value [1, 4] was 68%, the “Inhibitor extraction, phase separation by separating funnel” value [1, 4] was 65% and the “Inhibitor extraction, phase separation by centrifugal force” value [1, 5] was 69%. For the same compound, the “Inhibitor extraction, phase separation by separating funnel” value [1, 5] was 68%, the “Inhibitor extraction, phase separation by centrifugal force” value [1, 6] was 78% and the “Inhibitor extraction, phase separation by separating funnel” value [1, 6] was 75%. The “Inhibitor extraction, phase separation by centrifugal force” value [1, 7] was 78%, the “Inhibitor extraction, phase separation by separating funnel” value [1, 7] was 76% and the “Inhibitor extraction, phase separation by centrifugal force” value [1, 8] was 80%. For the same compound, the “Inhibitor extraction, phase separation by separating funnel” value [1, 8] was 78%.

`CCCCCCCCCC(C)=O` [2-undecanone] showed a Ferulic acid removal [1, 9] of 99%, a Furfural removal [1, 9] of 87% and an HMF removal [1, 9] of 90%. The Syringaldehyde removal [1, 9] was 97%, the TRS removal [1, 9] was 0% and the Vanillic acid removal [1, 9] was 95%. The Vanillin removal [1, 9] was 98%, the “Syringaldehyde remaining after extraction” value ([1]; Extraction 1, Vaqueous:Vorganic = 2:1, hydrolysate mimic, standard 300.2 mg/L) was 7.6 mg/L and the “Ferulic acid remaining after extraction” value ([1]; Extraction 1, Vaqueous:Vorganic = 2:1, hydrolysate mimic, standard 485.6 mg/L) was 0.7 mg/L. The “Vanillic acid remaining after extraction” value [1, 10] was 9.8 mg/L, the “Vanillin remaining after extraction” value [1, 10] was 10.3 mg/L and the “HMF remaining after extraction” value [1, 9] was 0.267 g/L. For the same compound, the “Furfural remaining after extraction” value [1, 9] was 0.392 g/L, the “TRS (total reducing sugar) after extraction” value (“TRS (total reducing sugar)” for short) [1, 9] was 52.00 g/L and the Ferulic acid removal [1, 11] was 100%. It also gave a Furfural removal [1, 11] of 97%, an HMF removal [1, 11] of 97% and a Syringaldehyde removal [1, 11] of 100%. For the same compound, the TRS removal [1, 11] was 0%, the Vanillic acid removal [1, 11] was 100% and the Vanillin removal [1, 11] was 100%. The “HMF remaining after extraction” value [1, 11] was 0.077 g/L, the “Furfural remaining after extraction” value [1, 11] was 0.082 g/L and the “TRS (total reducing sugar)” value [1, 11] was 52.00 g/L. It also gave a Ferulic acid removal [1, 12] of 100%, a Furfural removal [1, 12] of 100% and an HMF removal [1, 12] of 100%. The Syringaldehyde removal [1, 12] was 100%, the TRS removal [1, 12] was 0% and the Vanillic acid removal [1, 12] was 100%. The Vanillin removal [1, 12] was 100%, the “TRS (total reducing sugar)” value [1, 12] was 52.00 g/L and the Ferulic acid removal [1, 13] was 100%. For the same compound, the Furfural removal [1, 13] was 100%, the HMF removal [1, 13] was 100% and the Syringaldehyde removal [1, 13] was 100%. The TRS removal [1, 13] was 0%, the Vanillic acid removal [1, 13] was 100% and the Vanillin removal [1, 13] was 100%. For the same compound, the “TRS (total reducing sugar)” value [1, 13] was 52.00 g/L, the “Extraction efficiency for phenolic compounds” value [1, 14] was “higher than 95%” and the “Extraction efficiency towards furan derivatives” value [1, 14] was 87-90%. For the same compound, the “Reduction of bio-butanol generation in comparison with set-1” value [2, 15] was 67%, the ABE [2, 16] was 4.28 ± 0.4 g/L and the Butanol [2, 16] was 3.11 ± 0.3 g/L. The “Reduction of bio-butanol generation in comparison with set-1” value [3, 15] was 70%, the ABE [3, 16] was 3.82 ± 0.2 g/L and the Butanol [3, 16] was 2.77 ± 0.12 g/L.
